Experimental data as given in ChEMBL document CHEMBL1201862, “PubChem BioAssay data set” (2004).
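Test compounds were applied to cells in 96-well plates for 48 hours at 5 doses. GI50 = concentration required for 50% inhibition of growth.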 Calls of active or inactive are those of the source. Cut-off read from the data, not from the text of the source: active = GI50 up to about 1.1 µM and inactive = higher.

Legend:
Assay in all cases: NCI anticancer screen, dose series, 48 h
786-0 = system: 786-0
A549 = system: A549
ACHN = system: ACHN
BT-549 = system: BT-549
COLO 205 = system: COLO 205
Hs-578T = system: Hs-578T
MDA-MB-231 = system: MDA-MB-231
MOLT-4 = system: MOLT-4
Malme-3M = system: Malme-3M
OVCAR-3 = system: OVCAR-3
OVCAR-4 = system: OVCAR-4
PC-3 = system: PC-3
U-251 = system: U-251
UACC-257 = system: UACC-257
UACC-62 = system: UACC-62
UO-31 = system: UO-31
HL-60 = system: HL-60
NCI-H226 = system: NCI-H226
SR = system: SR
T47D = system: T47D

Structure (SMILES): COc1ccc(/N=[N+](\[O-])c2ccc(OC)cc2)cc1
- GI50 (786-0): > 100 µM (inactive)
- GI50 (A549): > 100 µM (inactive)
- GI50 (ACHN): > 100 µM (inactive)
- GI50 (BT-549): > 100 µM (inactive)
- GI50 (COLO 205): > 100 µM (inactive)
- GI50 (Hs-578T): > 100 µM (inactive)
- GI50 (MDA-MB-231): > 100 µM (inactive)
- GI50 (MOLT-4): > 100 µM (inactive)
- GI50 (Malme-3M): > 100 µM (inactive)
- GI50 (OVCAR-3): > 100 µM (inactive)
- GI50 (OVCAR-4): > 100 µM (inactive)
- GI50 (PC-3): > 100 µM (inactive)
- GI50 (U-251): > 100 µM (inactive)
- GI50 (UACC-257): > 100 µM (inactive)
- GI50 (UACC-62): > 100 µM (inactive)
- GI50 (UO-31): > 100 µM (inactive)

Structure (SMILES): CCC(=O)NC(Nc1cc(C)on1)(C(F)(F)F)C(F)(F)F
- GI50 (786-0): > 100 µM (inactive)
- GI50 (A549): > 100 µM (inactive)
- GI50 (ACHN): > 100 µM (inactive)
- GI50 (BT-549): > 100 µM (inactive)
- GI50 (HL-60): > 100 µM (inactive)
- GI50 (Hs-578T): > 100 µM (inactive)
- GI50 (MDA-MB-231): > 100 µM (inactive)
- GI50 (MOLT-4): > 100 µM (inactive)
- GI50 (Malme-3M): > 100 µM (inactive)
- GI50 (NCI-H226): > 100 µM (inactive)
- GI50 (OVCAR-3): > 100 µM (inactive)
- GI50 (SR): > 100 µM (inactive)
- GI50 (T47D): > 100 µM (inactive)
- GI50 (U-251): > 100 µM (inactive)
- GI50 (UACC-257): > 100 µM (inactive)
- GI50 (UACC-62): > 100 µM (inactive)
- GI50 (UO-31): 97.9 µM (inactive)

Structure (SMILES): COc1cc(C)c2c(=O)c3ccccc3n(C)c2c1
- GI50 (786-0): 10.6 µM (inactive)
- GI50 (A549): 38.5 µM (inactive)
- GI50 (ACHN): 24.3 µM (inactive)
- GI50 (BT-549): 20.8 µM (inactive)
- GI50 (COLO 205): 26.9 µM (inactive)
- GI50 (HL-60): 32.7 µM (inactive)
- GI50 (Hs-578T): 40.4 µM (inactive)
- GI50 (MDA-MB-231): 25.6 µM (inactive)
- GI50 (MOLT-4): 29.2 µM (inactive)
- GI50 (Malme-3M): 27.1 µM (inactive)
- GI50 (NCI-H226): 26.7 µM (inactive)
- GI50 (OVCAR-3): 21.6 µM (inactive)
- GI50 (OVCAR-4): 19.7 µM (inactive)
- GI50 (PC-3): 28.8 µM (inactive)
- GI50 (SR): 15.6 µM (inactive)
- GI50 (U-251): 20 µM (inactive)
- GI50 (UACC-257): 30.3 µM (inactive)
- GI50 (UACC-62): 20.3 µM (inactive)

Structure (SMILES): Cc1c2c(n(CCc3ccccc3)c1C)N(C)N=C(C#N)S2(=O)=O
- GI50 (786-0): > 100 µM (inactive)
- GI50 (A549): > 100 µM (inactive)
- GI50 (ACHN): > 100 µM (inactive)
- GI50 (BT-549): > 100 µM (inactive)
- GI50 (MDA-MB-231): > 100 µM (inactive)
- GI50 (MOLT-4): > 100 µM (inactive)
- GI50 (NCI-H226): > 100 µM (inactive)
- GI50 (OVCAR-3): > 100 µM (inactive)
- GI50 (OVCAR-4): > 100 µM (inactive)
- GI50 (PC-3): > 100 µM (inactive)
- GI50 (SR): > 100 µM (inactive)
- GI50 (T47D): > 100 µM (inactive)
- GI50 (U-251): > 100 µM (inactive)
- GI50 (UACC-257): > 100 µM (inactive)
- GI50 (UACC-62): > 100 µM (inactive)
- GI50 (UO-31): > 100 µM (inactive)

Structure (SMILES): CC(=O)NC(C)(C)C1CC=C(C)CC1 (stereo unspecified)
- GI50 (786-0): > 100 µM (inactive)
- GI50 (A549): > 100 µM (inactive)
- GI50 (ACHN): > 100 µM (inactive)
- GI50 (BT-549): > 100 µM (inactive)
- GI50 (COLO 205): > 100 µM (inactive)
- GI50 (HL-60): > 100 µM (inactive)
- GI50 (Hs-578T): > 100 µM (inactive)
- GI50 (MDA-MB-231): > 100 µM (inactive)
- GI50 (MOLT-4): > 100 µM (inactive)
- GI50 (Malme-3M): > 100 µM (inactive)
- GI50 (NCI-H226): > 100 µM (inactive)
- GI50 (OVCAR-3): > 100 µM (inactive)
- GI50 (OVCAR-4): > 100 µM (inactive)
- GI50 (PC-3): > 100 µM (inactive)
- GI50 (SR): > 100 µM (inactive)
- GI50 (U-251): > 100 µM (inactive)
- GI50 (UACC-257): > 100 µM (inactive)
- GI50 (UACC-62): > 100 µM (inactive)
- GI50 (UO-31): > 100 µM (inactive)

Structure (SMILES): CCN(CC)CCCNC(=O)c1cc2cc(NC(=O)c3cc4cc([N+](=O)[O-])ccc4[nH]3)ccc2[nH]1
- GI50 (786-0): 40.8 µM (inactive)
- GI50 (A549): > 100 µM (inactive)
- GI50 (ACHN): > 100 µM (inactive)
- GI50 (BT-549): > 100 µM (inactive)
- GI50 (COLO 205): > 100 µM (inactive)
- GI50 (MDA-MB-231): 54 µM (inactive)
- GI50 (NCI-H226): > 100 µM (inactive)
- GI50 (OVCAR-3): 7.89 µM (inactive)
- GI50 (OVCAR-4): > 100 µM (inactive)
- GI50 (PC-3): > 100 µM (inactive)
- GI50 (SR): > 100 µM (inactive)
- GI50 (T47D): > 100 µM (inactive)
- GI50 (U-251): > 10 µM (inactive)
- GI50 (UACC-257): 29.9 µM (inactive)
- GI50 (UACC-62): 32.8 µM (inactive)
- GI50 (UO-31): > 100 µM (inactive)

Structure (SMILES): CC(=O)Oc1c2oc3ccc(Cl)cc3c(=O)c2c(O)c2ccsc12
- GI50 (786-0): > 100 µM (inactive)
- GI50 (A549): > 100 µM (inactive)
- GI50 (ACHN): > 100 µM (inactive)
- GI50 (BT-549): 51.4 µM (inactive)
- GI50 (COLO 205): > 100 µM (inactive)
- GI50 (HL-60): > 100 µM (inactive)
- GI50 (Hs-578T): 33.3 µM (inactive)
- GI50 (MDA-MB-231): 28.2 µM (inactive)
- GI50 (Malme-3M): > 100 µM (inactive)
- GI50 (NCI-H226): > 100 µM (inactive)
- GI50 (OVCAR-3): > 100 µM (inactive)
- GI50 (OVCAR-4): > 100 µM (inactive)
- GI50 (PC-3): > 100 µM (inactive)
- GI50 (T47D): 0.132 µM (active)
- GI50 (U-251): > 100 µM (inactive)
- GI50 (UACC-257): > 100 µM (inactive)
- GI50 (UACC-62): > 100 µM (inactive)
- GI50 (UO-31): > 100 µM (inactive)

Structure (SMILES): O=C1Nc2cccc(Cl)c2/C1=C\c1cccnc1
- GI50 (786-0): 7.43 µM (inactive)
- GI50 (A549): 11.1 µM (inactive)
- GI50 (ACHN): 10.8 µM (inactive)
- GI50 (BT-549): 8.53 µM (inactive)
- GI50 (COLO 205): 3.32 µM (inactive)
- GI50 (HL-60): 3.72 µM (inactive)
- GI50 (Hs-578T): 14.2 µM (inactive)
- GI50 (MOLT-4): 4.23 µM (inactive)
- GI50 (Malme-3M): 9.93 µM (inactive)
- GI50 (OVCAR-3): 5.64 µM (inactive)
- GI50 (OVCAR-4): 12.7 µM (inactive)
- GI50 (PC-3): 14.8 µM (inactive)
- GI50 (T47D): 3.65 µM (inactive)
- GI50 (U-251): 6.47 µM (inactive)
- GI50 (UACC-257): 5.06 µM (inactive)
- GI50 (UO-31): 5.16 µM (inactive)
